Peptide text beside a SMILES is read from it. * marks the point of attachment. Cbz = O=C(OCc1ccccc1)*
Tests used:
[1] = tested on: HeLa cells; experiment: AAV2 FLAG-Luc transduction of HeLa cells (luciferase screen); assay type: cell-based, human; conditions: for concentration at which transduction was enhanced: HeLa cells
Description: (§1) A. To screen for agents that enhance rAAV transduction, any number of cells can be used. A range of concentrations of the agent to be tested can be determined based on, for instance desirable profiles of the agent, desirable toxicity profiles of the agent and/or concentration of the agents employed in vivo. The usefulness of the cell type chosen for the screen can be confirmed by testing compounds, e.g., proteasome inhibitors such as LLnL and ZLL which are known to increase rAAV transduction. For example, a AAV2 FLAG-Luc vector was employed to transduce HeLa, ferret fibroblasts, IB3 and Huh (liver) cells in the presence or absence of the proteasome inhibitor MG132. MG132 was confirmed to enhance AAV transduction in all cell types tested: HeLa cell transduction was enhanced about 500-fold at 80 μM, and 200-fold at 40 μM, MG132; ferret fibroblast cell transduction was enhanced about 200-fold at 20 μM, and 17-fold at 4 μM, MG132; IB3-1 cell transduction was enhanced about 30 to 70-fold at 20 to 80 μM MG132; and Huh-7 cell transduction was enhanced about 15-fold at 20 to 80 μM MG132. There was no difference in rAAV transduction efficiency in HeLa cells when either DMSO or ETOH was used as a vehicle for MG132. B. HeLa cells were selected to screen for additional agents that enhance rAAV transduction, although any cell strain or line; or primary cells, may be employed. […] The range of concentrations of the agents to be tested were selected based on solubility profiles, toxicity profiles and/or concentrations previously employed in vivo.
HeLa cells were infected for 2 hours with an MOI of 100 rAAV in the presence of agents, e.g., ritonavir (Norvir) (1, 10 and 100 μM), cyclosporin A (2.5, 25 and 250 μg/ml), epoxomicin (1, 10 and 50 μM), alcacinomycin A (5, 50 or 500 μM), chymostatin (1, 10 and 100 μM), bestatin (1, 10 and 100 μM), doxorubicin (adriamycin) (0.1, 1 and 10 μM), camptothecin (camptosar) (1, 10 and 100 μM), eicosapentanoic acid (1, 10 and 100 μM), tannic acid (2, 20, 200 and 2000 μM), simvastatin, prodrug (2, 20 and 200 μM), cisplatin (0.2, 2 and 20 μg/mL), and chloroquine (4, 40 and 400 μM). Forty-eight hours after infection, cells were harvested for analysis. rAAV transduction was measured by removing the media from the cell cultures, adding 100 μL reporter lysis buffer (RLB) and freezing. The supernatant was thawed and transferred to microfuge tubes, freeze thawed an additional 2 times, clarified by centrifugation for 10 minutes and then analyzed for reporter gene expression on the lumometer. Protein was determined by Bradford analysis and results were expressed as relative light units per mg protein (RLU/mg).
Based on results with doxorubicin, a small number of FDA approved anthracyclines were tested for their relative in vitro and in vivo activities on AAV transduction. HeLa cells were infected with 100 ppc AAV2FLAG-Luc for 2 hours in the presence of different anthracyclines, e.g., doxorubicin, daunarubicin (Cerubidine), epirubicin (Ellence™), and idarubicin (Idamycin®), and cells harvested 48 hours later. The anthracyclines were pharmaceutical grade, and prepared according to the manufacturer's instructions. Prior to use, the agents were diluted in sterile water to an equal mass, e.g., 0.6 μg/mL, 3 μg/mL and 6 μg/mL. For example, 3 μg/mL idamycin increased luciferase expression by over 5000-fold while doxorubin increased luciferase expression by 58-fold. Generally, the potency was as follows: idarubicin>daunarubicin>epirubicin>doxorubicin.

[2] = tested on: ferret fibroblasts; experiment: rAAV transduction of ferret fibroblasts; assay type: cell-based; conditions: for concentration at which transduction was enhanced: ferret fibroblast cells
Description: as §1
C. To determine whether combinations of agents that enhance rAAV transduction efficiency have synergistic or additive effects when used in combination, cells were contacted with the proteasome modulator, doxorubicin, and the proteasome inhibitor Z-LLL or LLnL. Different AAV vectors were tested, including splicing vectors and pseudotyped rAAV. Viral stocks utilized were as follows: Av2RSVluc, 5×10^8 particle/μl; Av2RSVlucCap5 (also referred to as Av2/5 CMVLuc), 2×10^9 particle/μl; Av2CMVluc, 1.3×10^9 particle/μl; and Av2CMVlucCap5, 1.1×109 particle/μl. Combinations of agents were compared to the agents used alone to determine the efficiency of transduction. LLnL was used at 40, 200 or 400 μM, Z-LLL at 4 μM and doxorubicin at 0.5 or 1 μM when employed alone. When a combination of LLnL and doxorubicin was used, LLnL was used at 4, 10, 20, 40, 200 or 400 μM and doxorubicin at 1 or 5 μM. The apical surface of polarized airway epithelia, HeLa cells or ferret fibroblast was contacted with the agents and rAAV (5×10^9 particles per well).

[3] = tested on: mice; experiment: Toxicity of proteasome inhibitors in mice (intra-tracheal and IV); assay type: in vivo, mouse; conditions: 10, 100 and 1000 fold higher doses than used in polarized airway cells
Description: Long-term enhancement of rAAV transduction by proteasome inhibitor in vivo. To evaluate the potential utility of proteasome inhibitors for in vivo gene therapy, both the toxicity and efficacy of these agents for in vivo rAAV mediated gene transfer in the mouse lung was tested. To assess the toxicity of these proteasome inhibitors in mice, 10, 100, and 1000 fold higher effective doses of LLnL or Z-LLL were administered than used to induce gene transfer in polarized airway cells, using both intra-tracheal and systemic (IV) delivery. No toxicity was indicated by histologic evaluation of the lung and liver or was evidenced by the death of animals. To investigate whether these proteasome inhibitors could improve rAAV transduction in vivo, AV.LacZ (5×10^10 particles) was delivered either alone or in the presence of 400 μM Z-LLL by intranasal administration. Mouse lungs were harvested at 3, 10 and 150 days post-infection to evaluate short and long term effects. […] Targeted transgene expression was predominantly confined to the conducting airways, rather than in the parenchyma. Alveolar cells were rarely transduced. […] The range of transgene expression in distal and proximal airways was 0 to 4% and 5 to 18%, respectively.

[4] = tested on: primary fetal fibroblasts; experiment: rAAV transduction of primary fetal fibroblasts; assay type: cell-based; conditions: data not shown
Description: Hela, A549, IB3, and primary fetal fibroblasts were evaluated for AV2Luc and AV2/5Luc transduction in the presence of LLnL, Dox, or LLnL+Dox at various concentrations. The data shown is from Hela and A549 cells at the most optimal dose combination that induces rAV2Luc transduction to a greater extent than each compound alone.

| Molecule | enhancement of HeLa cell transduction ([1]; 40 μM) | enhancement of HeLa cell transduction ([1]; 80 μM) | enhancement of ferret fibroblast cell transduction ([2]; 4 μM) | enhancement of ferret fibroblast cell transduction ([2]; 20 μM) | toxicity (histology of lung and liver, death of animals) [3] | induction of transduction [4] | result in cell line screening [1] | increase in luciferase expression ([1]; 3 μg/mL, 100 ppc AAV2FLAG-Luc, harvest 48 hours) | order of potency among anthracyclines ([1]; 0.6, 3 and 6 μg/mL) | concentration at which transduction was enhanced [1] | dose dependence of transduction ([1]; dose ranges tested) | concentration at which transduction was enhanced [2] | enhancement of transduction ([2]; ferret fibroblasts infected with lacZ splicing vectors) |
| --- | --- | --- | --- | --- | --- | --- | --- | --- | --- | --- | --- | --- | --- |
| CC(C)C[C@@H](C=O)NC(=O)[C@H](CC(C)C)NC(=O)[C@H](CC(C)C)NC(=O)OCc1ccccc1 [Z-LLL, N-carbobenzoxyl-L-leucinyl-L-leucinyl-L-leucinal] (Cbz-Leu-Leu-Leu-aldehyde) | about 200 fold | about 500 fold | ~17 fold | about 200 fold | No toxicity | – | – | – | – | – | – | – | – |
| COc1cccc2c1C(=O)c1c(O)c3c(c(O)c1C2=O)C[C@@](O)(C(=O)CO)C[C@@H]3O[C@H]1C[C@H](N)[C@H](O)[C@H](C)O1 [doxorubicin] | – | – | – | – | – | most significantly enhances transduction | tested positive | 58 fold | idarubicin>daunarubicin>epirubicin>doxorubicin | 1 µM | dose-dependent increase in transduction | 1 µM | about 100 fold |
| N-acetyl-L-leucinyl-L-leucinal-L-norleucinal [LLnL] | – | – | – | – | No toxicity | 10 fold | – | – | – | 40 µM | – | 40 µM | – |
